Assay results as given in patent publication US20150105324A1, “COMPOSITIONS AND METHODS FOR TREATING PTSD AND RELATED DISEASES” (INDIANA UNIVERSITY RESEARCH AND TECHNOLOGY CORPORATION, priority 2012, published 2015).

Legend:
[1] = tested on: NMDARs EPSCs of CA1 pyramidal neurons; test: Electrophysiological recordings in hippocampal slices; type: cell-based; conditions: 1.0 μM, rat hippocampal slices, low-Mg2+ ACSF
rats [2] = test: Open Field Test of Anxiety; type: in vivo, rat; conditions: i.p. 60 min prior to 5 min test; IC87201 4 mg/kg, ZL006 10 mg/kg; vs vehicle
Procedure: (§1) Open Field Test of Anxiety. Adult male rats are evaluated in a conventional open field test. Compounds described herein are evaluated compared to vehicle controls. Animals are observed for duration of time spent in regions of the open field (inner region versus outer region) and line crossings during a […] period following a systemic injection of vehicle or a test compound.
(§2) Results. Animals are systemically pre-treated by i.p. injections with two different agents that are known to disrupt the nNOS-PSD95 interaction, IC87201 (4 mg/kg) and ZL006 (10 mg/kg), 60 min prior to a 5 min open field test immediately followed by a 5 min social interaction test. […] (Inner time F(2,17)=0.4, p=0.678; Outer time F(2,17)=0.4, p=0.678; Line crossings F(2,17)=1.0, p=0.405; n=6/group).

[3] = 1.5 mg/kg i.v., 15 and 60 min after dosing; FIG. 8 (Zhou 2010); cited from earlier work
nNOS-PSD95 interaction = biological target: T1, nNOS-PSD95 interaction (Mus musculus, UniProt Q9Z0J4); test: Co-immunoprecipitation of nNOS-PSD95 complex in cortex of mice (MCAO/reperfusion); type: in vivo
T1 construct: from tissue; host or cells: mouse cortex
T1 sequence (Q9Z0J4 whole entry, the tested form may be a part): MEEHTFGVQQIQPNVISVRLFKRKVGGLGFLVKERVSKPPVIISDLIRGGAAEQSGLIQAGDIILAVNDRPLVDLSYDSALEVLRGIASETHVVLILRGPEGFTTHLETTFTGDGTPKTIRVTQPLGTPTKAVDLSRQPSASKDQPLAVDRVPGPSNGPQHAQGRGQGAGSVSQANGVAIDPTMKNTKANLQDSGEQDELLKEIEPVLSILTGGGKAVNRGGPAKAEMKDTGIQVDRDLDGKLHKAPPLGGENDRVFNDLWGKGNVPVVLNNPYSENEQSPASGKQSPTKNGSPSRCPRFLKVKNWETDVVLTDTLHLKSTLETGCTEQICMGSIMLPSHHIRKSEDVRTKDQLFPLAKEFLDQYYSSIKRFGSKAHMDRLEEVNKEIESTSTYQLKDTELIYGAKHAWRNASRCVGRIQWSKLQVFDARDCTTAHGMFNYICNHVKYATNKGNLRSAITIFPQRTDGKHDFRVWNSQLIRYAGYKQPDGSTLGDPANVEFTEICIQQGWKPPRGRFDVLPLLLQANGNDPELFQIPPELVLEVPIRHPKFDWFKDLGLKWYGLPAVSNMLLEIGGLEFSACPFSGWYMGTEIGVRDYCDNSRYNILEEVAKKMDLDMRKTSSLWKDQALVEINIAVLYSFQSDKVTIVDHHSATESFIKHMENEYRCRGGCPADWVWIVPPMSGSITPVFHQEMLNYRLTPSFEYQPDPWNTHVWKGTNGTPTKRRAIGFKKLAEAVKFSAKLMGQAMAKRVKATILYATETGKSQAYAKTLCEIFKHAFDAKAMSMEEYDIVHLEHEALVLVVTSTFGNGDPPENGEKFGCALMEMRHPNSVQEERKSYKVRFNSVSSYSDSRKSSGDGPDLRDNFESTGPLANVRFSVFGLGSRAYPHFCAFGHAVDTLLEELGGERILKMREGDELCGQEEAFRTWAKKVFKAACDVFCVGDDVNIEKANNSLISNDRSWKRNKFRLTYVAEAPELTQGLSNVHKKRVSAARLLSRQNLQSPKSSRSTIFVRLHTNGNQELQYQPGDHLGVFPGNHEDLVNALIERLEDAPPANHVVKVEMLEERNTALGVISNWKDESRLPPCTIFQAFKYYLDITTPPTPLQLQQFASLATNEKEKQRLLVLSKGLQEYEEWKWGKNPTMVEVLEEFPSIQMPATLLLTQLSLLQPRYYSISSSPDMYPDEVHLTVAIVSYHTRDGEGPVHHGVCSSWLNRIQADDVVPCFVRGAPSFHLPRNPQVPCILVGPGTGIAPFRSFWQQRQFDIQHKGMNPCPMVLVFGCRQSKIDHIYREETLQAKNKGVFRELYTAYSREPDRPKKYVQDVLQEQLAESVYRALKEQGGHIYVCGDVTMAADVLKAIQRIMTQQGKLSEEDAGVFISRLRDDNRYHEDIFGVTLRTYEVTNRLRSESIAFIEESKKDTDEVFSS
Procedure: (§3) Co-immunoprecipitation. Cultured neurons, organotypic hippocampal slice cultures (OHSCs) or the cortices of mice were lysed and centrifuged. The supernatant was preincubated with protein G-Sepharose beads (Sigma-Aldrich) and then centrifuged to obtain the target supernatant. The antibodyconjugated protein G-Sepharose beads were incubated with the target supernatant, centrifuged, washed and heated the beads to elute bound proteins and analyzed proteins by immunoblotting.
(§4) Coimmunoprecipitation. Neurons were washed in PBS twice, and then lysed in 400 μl buffer A (50 mM Tris-HCl [pH 7.4], 150 mM NaCl, 1 mM EDTA-Na, 1% NP-40, 0.02% sodium azide, 0.1% SDS, 0.5% sodium deoxycholate, 1% PMSF, 1‰ aprotinin, 1‰ leupeptin, and 0.5‰ pepstatin A). The lysates were centrifugated at 12,000×g for 15 min at 4° C. […] Proteins were analyzed by immunoblotting.
(§5) Samples were immunoprecipitated and analyzed by western blotting with the indicated antibodies (IP for nNOS, and WB for PSD-95), and analyzed for (a) nNOS-PSD-95 complex amounts in the cortex of mice subjected to 90 min MCAO and 30 min reperfusion (n=3), as shown in FIG. 5A in wild type mice after MCAO, and (b) nNOS-PSD-95 complex amounts in neurons exposed to 50 μM glutamate with 10 μM glycine for 30 min (n=3). […]

PSD95-SynGAP interaction = biological target: T2, PSD95-SynGAP interaction (Mus musculus, UniProt Q62108); test: Co-immunoprecipitation of PSD95-SynGAP in ischemic cortexes; type: in vivo; conditions: 1.5 mg kg-1 i.v. 15 min before MCAO
T2 construct: from tissue; host or cells: mouse ischemic cortex
T2 sequence (Q62108 whole entry): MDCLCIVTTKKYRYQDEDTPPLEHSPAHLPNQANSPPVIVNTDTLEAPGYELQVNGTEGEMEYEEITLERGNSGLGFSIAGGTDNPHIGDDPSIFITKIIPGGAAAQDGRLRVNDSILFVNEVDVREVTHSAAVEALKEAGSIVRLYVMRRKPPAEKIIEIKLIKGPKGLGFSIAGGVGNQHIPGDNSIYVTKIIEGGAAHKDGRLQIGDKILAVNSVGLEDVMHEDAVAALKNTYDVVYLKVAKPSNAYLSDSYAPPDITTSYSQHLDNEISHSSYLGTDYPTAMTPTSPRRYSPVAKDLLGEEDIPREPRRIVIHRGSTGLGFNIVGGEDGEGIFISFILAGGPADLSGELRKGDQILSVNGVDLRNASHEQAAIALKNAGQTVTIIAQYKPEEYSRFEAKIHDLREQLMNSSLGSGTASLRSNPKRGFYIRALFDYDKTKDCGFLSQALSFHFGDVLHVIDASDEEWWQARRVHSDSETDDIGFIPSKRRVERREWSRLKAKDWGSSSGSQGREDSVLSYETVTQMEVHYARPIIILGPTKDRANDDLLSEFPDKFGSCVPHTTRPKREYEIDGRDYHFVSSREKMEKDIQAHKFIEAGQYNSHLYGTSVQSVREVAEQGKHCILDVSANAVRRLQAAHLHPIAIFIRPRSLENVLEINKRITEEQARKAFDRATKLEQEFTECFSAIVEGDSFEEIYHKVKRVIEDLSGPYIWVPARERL
Procedure: (§6) Coimmunoprecipitation. Neurons were washed in PBS twice, and then lysed in 400 μl buffer A (50 mM Tris-HCl [pH 7.4], 150 mM NaCl, 1 mM EDTA-Na, 1% NP-40, 0.02% sodium azide, 0.1% SDS, 0.5% sodium deoxycholate, 1% PMSF, 1‰ aprotinin, 1‰ leupeptin, and 0.5‰ pepstatin A). The lysates were centrifugated at 12,000×g for 15 min at 4° C. The OHSCs or cortex of mice was homogenized in ice-cold lysis buffer A. After lysis for 15 min, samples were centrifuged at 20,000×g for 15 min. The supernatant were preincubated for 1 h at 4° C. with 0.025 ml of protein G-sepharose beads (Sigma-Aldrich) and then centrifuged to remove proteins that adhered nonspecifically to the beads and obtain the target supernatant for following IP experiment. Protein G Sepharose beads were incubated with antibodies (rabbit antibody to nNOS, 1:100, Affinity BoReagents; rabbit antibody to PSD95, 1:100, Cell Signaling Technology; and rabbit antibody to NR2B antibody, 1:200, Chemicon) for 3-4 h. The antibodies-conjugated protein G-sepharose beads and the target supernatant were added for incubation overnight. Immune complexes were isolated by centrifugation, washed 4 times with 0.05 M HEPES buffer, pH 7.1, containing 0.15% Triton X-100, 0.15 M NaCl, and 0.1×10^−3 M sodium orthovanadate, and bound proteins were eluted by heating at 100° C. in loading buffer. Proteins were analyzed by immunoblotting. […]

nNOS-CAPON interaction = biological target: T3, nNOS-CAPON interaction (Mus musculus, UniProt Q9Z0J4); test: Co-immunoprecipitation of nNOS-CAPON in ischemic cortexes; type: in vivo; conditions: 1.5 mg kg-1 i.v. 15 min before MCAO
T3 construct: from tissue; host or cells: mouse ischemic cortex
T3 sequence (Q9Z0J4 whole entry): as the sequence (Q9Z0J4 whole entry, the tested form may be a part) above
Procedure: as §6

rats [4] = test: Social Interaction test; type: in vivo, rat; conditions: i.p. 60 min prior; IC87201 4 mg/kg, ZL006 10 mg/kg; vs vehicle
Procedure: as §1, with “Social Interaction.” for “Open Field Test of Anxiety.”, “social interaction assay.” for “open field test.”, “of” for “of the”, “field test” for “field”
as §2

nNOS-PSD95 complex = test: Co-immunoprecipitation of nNOS-PSD95 complex in neuronal cultures; type: cell-based
Procedure: as §3, §4, §5

[5] = tested on: NOS (total NOS, nNOS) in homogenates from the cortex of mice; test: NOS activity assay; type: biochemical, mouse; conditions: 10 μM, 30 min
[6] = tested on: cortical neurons stimulated with glutamate and glycine; test: Cell viability (LDH release) assay, glutamate/glycine exposed neurons; type: cell-based; conditions: FIG. 7; for glutamate receptor induced cell death: primary neuronal slices
Procedure: Cell viability assays. An LDH release assay was used for the measurement of cell viability. Cortical neurons were stimulated with glutamate and glycine in Mg^2+-free Locke's buffer. The neurons were washed with the buffer and incubated in cell-culture media for 12 h. Subsequently, LDH in the cell-culture media and total LDH after cell lysis were measured according to the manufacturer's instructions. LDH release was defined as ratio of LDH in the media to total LDH and normalized to the fold of control.

[7] = tested on: rats (conditioned fear, percent time freezing); test: Conditioned Fear Test; type: in vivo, rat; conditions: for acquisition of conditioned fear / fear extinction: compared to respective vehicle groups; for fear extinction: post conditioning treatment; for percent time freezing on test day 1 / percent time freezing during acquisition / percent time freezing during recall: rats; for percent time freezing on test day 1: after fear conditioning, FIGS. 1 and 2; for percent time freezing on test day 1 / percent time freezing during acquisition: vs vehicle; for percent time freezing during acquisition: acquisition of fear conditioning; for percent time freezing during recall: recall on day 3; for conditioned fear response 24 hours later (day 3 fear recall): treatment 5-60 min following the day 2 conditioning session
Procedure: Conditioned Fear Test. The conditioning chamber (Hamilton-Kinder, Paolo Alto, Calif.) is equipped to present light and tone cues along with a video camera set up to record behavior. The entire chamber is enclosed in a sound attenuated box. The animals went through 5 days of experimentation: Day 1 Habituation; Day 2 Conditioning; Day 3 Fear recall testing; Day 4 Extinction Training; and Day 5 Extinction Recall Test. Day 1 Habituation: Rats are exposed to the chambers for 10 min. Day 2 Conditioning: Rats are given five presentations of the tone CS (4 kHz, 80 dB, 20 sec) each co-terminating with a 0.8 mA foot shock lasting 0.5-s (US). The first CS-US pairing is presented 120 s into the session and the inter-trial interval (ITI) between CS-US presentations is 105 s on average (range 90-120). Conditioning sessions last about 11 minutes. Day 3 Fear recall tests: Twenty-four hours following the acquisition training, rats are given five 20-s CS presentations in the absence of the US. The first tone is presented 120 s into the session and the inter-trial interval (ITI) between CS-US presentations is 105 s on average (range 90-120). Percent time spent freezing is measured during each tone as an indication of fear recall. Recall test sessions last about 11 minutes. Extinction Training: Rats are exposed to 20 presentations of the CS in the absence of the US (mean ITI 180 s, range 120 to 240 s). Extinction Recall Test: 10 presentations of the CS only (mean ITI 180 s, range 120 to 240 s) are given 24 hrs after extinction.

[8] = tested on: rats (conditioned fear, percent time freezing); test: Conditioned Fear Test; type: in vivo, rat; conditions: extinction on day 2, vs vehicle
[9] = biological target: PSD95-cypin protein-protein interaction (Homo sapiens, UniProt P78352); conditions: plate binding assay (Florio 2009); cited from earlier work
Chain of PSD95-cypin protein-protein interaction (P78352 whole entry): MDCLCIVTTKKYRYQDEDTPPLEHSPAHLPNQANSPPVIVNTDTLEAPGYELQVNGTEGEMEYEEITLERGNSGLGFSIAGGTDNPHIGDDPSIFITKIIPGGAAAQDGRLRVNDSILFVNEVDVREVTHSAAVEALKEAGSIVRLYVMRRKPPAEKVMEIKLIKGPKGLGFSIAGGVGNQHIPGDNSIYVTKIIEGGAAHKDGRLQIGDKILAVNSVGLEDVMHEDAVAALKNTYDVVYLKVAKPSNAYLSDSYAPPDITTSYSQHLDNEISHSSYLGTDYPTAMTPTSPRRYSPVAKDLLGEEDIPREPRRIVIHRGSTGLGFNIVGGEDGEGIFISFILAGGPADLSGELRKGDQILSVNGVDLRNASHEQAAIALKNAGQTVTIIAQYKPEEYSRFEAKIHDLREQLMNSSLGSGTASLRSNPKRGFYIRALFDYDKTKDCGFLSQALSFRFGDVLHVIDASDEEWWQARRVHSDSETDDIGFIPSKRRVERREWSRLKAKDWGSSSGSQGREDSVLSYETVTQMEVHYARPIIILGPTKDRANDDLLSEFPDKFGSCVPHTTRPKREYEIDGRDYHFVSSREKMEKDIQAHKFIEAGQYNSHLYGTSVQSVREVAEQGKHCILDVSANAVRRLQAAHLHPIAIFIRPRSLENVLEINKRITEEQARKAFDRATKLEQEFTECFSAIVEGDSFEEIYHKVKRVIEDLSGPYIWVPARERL

[10] = tested on: cGMP production induced by a NO donor; conditions: (Florio 2009); cited from earlier work
[11] = tested on: NMDA-induced increase of cGMP in primary cultured hippocampal neurons; test: NMDA-induced increase in cGMP in primary rat hippocampal neurons; type: cell-based
Procedure: (§7) NMDA-induced increase in cGMP in primary rat hippocampal neurons Neonatal rat hippocampal cultures were prepared according to Brewer (1997). Cells were cultured for 14-21 days before testing. NMDA ([…]) increased cGMP (measured by a cGMP-RIA kit from Perkin-Elmer) within 2-15 min of addition. The NMDA receptor antagonist, MK-801, and a NOS catalytic inhibitor, L-NAME, were used as positive controls.
as §7, with “neurons.” for “neurons”

| duration of time spent in regions of the open field (inner region versus outer region) (rats [2]) | number of line crossings (rats [2]) | Compound | social interaction duration (rats [4]) | glutamate receptor induced cell death [6] | acquisition of conditioned fear [7] | fear extinction [7] | percent time freezing on test day 1 [7] | percent time freezing during acquisition [7] | percent time freezing during recall ([7]; data not shown) | conditioned fear response 24 hours later (day 3 fear recall) [7] | percent time freezing during extinction [8] | further results |
| --- | --- | --- | --- | --- | --- | --- | --- | --- | --- | --- | --- | --- |
| not observed a significant difference | not observed a significant difference | O=C(O)c1ccc(NCc2cc(Cl)cc(Cl)c2O)cc1O [ZL006] | not observed a significant difference | disrupt nNOS downstream signaling | identical acquisition of conditioned fear | normal patterns of fear extinction | reduced the percent time freezing on test day 1 | Neither IC8701 nor ZL006 altered the percent time freezing | Neither IC8701 nor ZL006 altered the percent time freezing | significant attenuation of conditioned fear response | Neither IC8701 nor ZL006 altered the percent time freezing | NMDARs EPSCs [1]: does not inhibit NMDARs EPSCs; penetration in the CNS (concentrations in serum, CSF and brain tissue) [3]: significant penetration in the CNS; nNOS-PSD95 interaction in the non-ischemic cortex (nNOS-PSD95 interaction; non-ischemic cortex, n=3, ZL006 vs vehicle): did not show a significant effects; ischemic induced increase in nNOS-PSD95 interaction (nNOS-PSD95 interaction; wild type mice, MCAO and reperfusion): blocks the ischemic induced increase in nNOS-PSD95 interaction; co-immunoprecipitation of PSD95-SynGAP interaction (PSD95-SynGAP interaction): does not inhibit; co-immunoprecipitation of nNOS-Capon interaction (nNOS-CAPON interaction): does not inhibit; co-immunoprecipitation of nNOS-PSD95 complex (nNOS-PSD95 complex): inhibits the in co-immunoprecipitation of nNOS-PSD95 complex; NOS activity / NOS catalytic activity [5]: does not inhibit NOS activity; NMDAR-dependent excitotoxicity (lactate dehydrogenase release) and cerebral ischemia ([6]; cultured neurons exposed to 50 μM glutamate with 10 μM glycine for 30 min): prevents NMDAR-dependent excitotoxicity and cerebral ischemia; freezing, extinction ([7]; 10 mg/kg i.p., after the acquisition day, 1 hour prior to the consolidation day, FIG. 3): improved extinction; freezing, recall ([7]; 10 mg/kg i.p., after the acquisition day, 1 hour prior to the consolidation day, data not shown): improved recall |
| not observed a significant difference | not observed a significant difference | Oc1c(Cl)cc(Cl)cc1CNc1ccc2[nH]nnc2c1 [IC87201, 2-((1H-benzo[d][1,2,3]triazol-5-ylamino)methyl)-4,6-dichlorophenol] | improvement in social interaction duration | disrupt nNOS downstream signaling | identical acquisition of conditioned fear | normal patterns of fear extinction | reduced the percent time freezing on test day 1 | Neither IC8701 nor ZL006 altered the percent time freezing | Neither IC8701 nor ZL006 altered the percent time freezing | significant attenuation of conditioned fear response | Neither IC8701 nor ZL006 altered the percent time freezing | disruption of PSD95-cypin protein-protein interaction [9]: does not disrupt; effect on cGMP production induced by a NO donor [10]: no effect; attenuation of NMDA-induced increases in cGMP [11]: dose-dependently attenuated NMDA-induced increases in cGMP; IC50 ([11]; Rattus norvegicus, Hippocampal neuron, n=14-20, FIG. 6, read-out: IC50, attenuation of NMDA-induced increase of cGMP): 2700 nM |
